From patent publication US20250213555A1, “SUBSTITUTED TETRAHYDROFURAN ANALOGS AS MODULATORS OF SODIUM CHANNELS” (VERTEX PHARMACEUTICALS INCORPORATED, priority 2021, published 2025)

Target: human Nav 1.8 (Homo sapiens, UniProt Q9Y5Y9)
Test: E-VIPR assay detecting and measuring Nav inhibition properties
Format: cell-based
Details: HEK cells expressing a truncated form of human Nav 1.8; compound numbers without "*" (not marked as run in the presence of human serum); read-out: measured IC50 value in the E-VIPR Assay
Text: E-VIPR Assay Detecting and Measuring Nav Inhibition Properties
Sodium ion channels are voltage-dependent proteins that can be activated by inducing membrane voltage changes by applying electric fields. The electrical stimulation instrument and methods of use, referred to as E-VIPR, are described in International Publication No. WO 2002/008748 A3 and C.-J. Huang et al. Characterization of voltage-gated sodium channel blockers by electrical stimulation and fluorescence detection of membrane potential, 24 Nature Biotech. 439-46 (2006), both of which are incorporated by reference in their entirety. The instrument comprises a microtiter plate handler, an optical system for exciting the coumarin dye while simultaneously recording the coumarin and oxonol emissions, a waveform generator, a current- or voltage-controlled amplifier, and parallel electrode pairs that are inserted into assay plate wells. Under integrated computer control, this instrument passes user-programmed electrical stimulus protocols to cells within the wells of the microtiter plate.
16-20 hours prior to running the assay on E-VIPR, HEK cells expressing a truncated form of human Nav 1.8 with full channel activity were seeded into microtiter 384-well plates, pre-coated with matrigel, at a density of 25,000 cells per well. 2.5-5% KIR2.1 Bacmam virus was added to the final cell suspension before seeding into cell plates. HEK cells were grown in Dulbecco's Modified Eagle's Medium (DMEM) supplemented with 10% FBS (Fetal Bovine Serum, qualified; Sigma #F4135), 1% NEAA (Non-Essential Amino Acids, Gibco #11140), 1% HEPES (Gibco #15630), 1% Pen-Strep (Penicillin-Streptomycin; Gibco #15140) and 5 μg/ml Blasticidin (Gibco #R^210-01). Cells were expanded in vented cap cell culture flasks, with 90-95% humidity and 5% CO2.
100 mg/mL Pluronic F-127 (Sigma #P2443), in dry DMSO
Compound Plates: Corning 384-well Polypropylene Round Bottom #3656
Cell Plates: 384-well tissue culture treated plates (Greiner #781091-2B)
2.5-5% KIR 2.1 Bacmam virus (produced in-house), prepared as described in Section 3.3 of J. A. Fornwald et al., Gene Expression in Mammalian Cells Using BacMam, a Modified Baculovirus System, 1350 Methods in Molecular Biology 95-116 (2016), the entire contents of which are incorporated by reference. The concentration used can be dependent on viral titer of each batch.
5 mM DiSBAC6(3), a voltage sensitive oxonol acceptor (CAS number 169211-44-3; 5-[3-(1,3-dihexylhexahydro-4,6-dioxo-2-thioxo-5-pyrimidinyl)-2-propen-1-ylidene]-1,3-dihexyldihydro-2-thioxo-4,6 (1H,5H)-pyrimidinedione), in dry DMSO. The preparation of DiSBAC6(3) is analogous to that of DiSBAC4(3) as described in Voltage Sensing by Fluorescence Resonance Energy Transfer in Single Cells, Gonzalez, J. E. and Tsien, R. Y. (1995) Biophys. J. 69, 1272-1280.
5 mM CC2-DMPE, a commercially available membrane-bound coumarin phospholipid FRET donor (ThermoFisher Scientific catalog number K1017, CAS number 393782-57-5; tetradecanoic acid, 1,1′-[(1R)-1-[8-(6-chloro-7-hydroxy-2-oxo-2H-1-benzopyran-3-yl)-3-hydroxy-3-oxido-8-oxo-2,4-dioxa-7-aza-3-phosphaoct-1-yl]-1,2-ethanediyl] ester) was prepared in dry DMSO. See also, Improved indicators of cell membrane potential that use fluorescence resonance energy transfer, Gonzalez, J. E. and Tsien, R. Y. (1997) Chem. Biol. 4, 269-277.
Voltage Assay Background Suppression Compound (VABSC-1) is prepared in H2O (89-363 mM, range used to maintain solubility)
Human Serum (HS, Millipore #S1P1-01KL, or Sigma SLBR5469V and SLBR5470V as a 50%/50% mixture, for 25% assay final concentration)
• Sodium Chloride 160 mM (9.35 g/L), Potassium Chloride, 4.5 mM (0.335 g/L), Glucose 10 mM (1.8 g/L), Magnesium Chloride (Anhydrous) 1 mM (0.095 g/L), Calcium Chloride 2 mM (0.222 g/L), HEPES 10 mM (2.38 g/L) in water. […]

human Nav 1.8, sequence (Q9Y5Y9 126-399 limits assumed): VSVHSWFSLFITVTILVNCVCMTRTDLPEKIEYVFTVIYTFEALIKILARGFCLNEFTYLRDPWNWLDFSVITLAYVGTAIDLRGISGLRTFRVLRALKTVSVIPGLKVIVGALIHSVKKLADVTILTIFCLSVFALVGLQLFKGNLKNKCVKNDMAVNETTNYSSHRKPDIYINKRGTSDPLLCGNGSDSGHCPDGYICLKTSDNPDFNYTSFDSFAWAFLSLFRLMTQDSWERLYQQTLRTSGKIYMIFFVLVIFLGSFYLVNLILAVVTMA
human Nav 1.8, sequence (Q9Y5Y9 660-890 limits assumed): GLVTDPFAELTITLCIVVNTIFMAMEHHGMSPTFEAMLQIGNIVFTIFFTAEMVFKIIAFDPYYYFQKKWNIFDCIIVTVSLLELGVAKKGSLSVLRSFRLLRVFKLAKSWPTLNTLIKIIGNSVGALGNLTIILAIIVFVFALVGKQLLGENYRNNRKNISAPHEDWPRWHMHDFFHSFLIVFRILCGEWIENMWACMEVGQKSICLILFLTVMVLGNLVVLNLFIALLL
human Nav 1.8, sequence (Q9Y5Y9 1148-1722 limits assumed): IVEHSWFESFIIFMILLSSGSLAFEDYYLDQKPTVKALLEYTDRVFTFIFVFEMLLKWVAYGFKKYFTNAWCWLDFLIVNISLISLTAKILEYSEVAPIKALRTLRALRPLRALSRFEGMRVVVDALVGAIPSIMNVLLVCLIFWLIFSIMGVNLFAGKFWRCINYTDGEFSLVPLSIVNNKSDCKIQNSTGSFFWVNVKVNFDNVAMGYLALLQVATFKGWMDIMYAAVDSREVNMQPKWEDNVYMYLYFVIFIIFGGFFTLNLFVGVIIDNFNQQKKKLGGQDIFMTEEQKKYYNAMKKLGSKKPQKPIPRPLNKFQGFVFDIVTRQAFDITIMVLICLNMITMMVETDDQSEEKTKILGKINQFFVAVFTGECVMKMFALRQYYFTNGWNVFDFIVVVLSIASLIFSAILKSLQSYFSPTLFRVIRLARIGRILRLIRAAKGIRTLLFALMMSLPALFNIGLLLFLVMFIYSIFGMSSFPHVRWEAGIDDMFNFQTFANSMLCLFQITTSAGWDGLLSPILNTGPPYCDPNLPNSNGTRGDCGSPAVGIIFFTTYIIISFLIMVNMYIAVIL

Compound | IC50 [nM]
COc1c([C@H]2[C@H](C(=O)Nc3ccnc(C(=O)N4CCC(N(C)C)C4)c3)O[C@@](C)(C(F)(F)F)[C@H]2C)ccc(F)c1F (single isomer, unassigned) [Compound 264, rel-(2R*,3S*,4S*,5R*)-3-(3,4-difluoro-2-methoxyphenyl)-N-(2-(3-(dimethylamino)pyrrolidine-1-carbonyl)pyridin-4-yl)-4,5-dimethyl-5-(trifluoromethyl)tetrahydrofuran-2-carboxamide] | < 10
COc1c(C2C(C(=O)Nc3ccnc(C(=O)N4CCC(N(C)C)C4)c3)OC(C)(C(F)(F)F)C2C)ccc(F)c1F (single isomer, unassigned) [Compound 265, rel-(2R*,3S,*4S*,5R*)-3-(3,4-difluoro-2-methoxyphenyl)-N-(2-(3-(dimethylamino)pyrrolidine-1-carbonyl)pyridin-4-yl)-4,5-dimethyl-5-(trifluoromethyl)tetrahydrofuran-2-carboxamide] | < 10
COc1c([C@H]2[C@H](C(=O)Nc3ccnc(C(=O)N4CCN(C)[C@H]5C[C@H]54)c3)O[C@@](C)(C(F)(F)F)[C@H]2C)ccc(F)c1F (single isomer, unassigned) [Compound 294, rel-(2R*,3S*,4S*,5R*)-3-(3,4-difluoro-2-methoxyphenyl)-4,5-dimethyl-N-(2-((1R,6S)-5-methyl-2,5-diazabicyclo[4.1.0]heptane-2-carbonyl)pyridin-4-yl)-5-(trifluoromethyl)tetrahydrofuran-2-carboxamide] | < 10
COc1c([C@H]2[C@H](C(=O)Nc3ccnc(C(=O)N4CCN(C)[C@@H]5C[C@@H]54)c3)O[C@@](C)(C(F)(F)F)[C@H]2C)ccc(F)c1F (single isomer, unassigned) [Compound 295, rel-(2R*,3S*,4S*,5R*)-3-(3,4-difluoro-2-methoxyphenyl)-4,5-dimethyl-N-(2-((1S,6R)-5-methyl-2,5-diazabicyclo[4.1.0]heptane-2-carbonyl)pyridin-4-yl)-5-(trifluoromethyl)tetrahydrofuran-2-carboxamide] | < 10
COCCOc1c([C@@H]2[C@@H](C(=O)Nc3ccnc(C(N)=O)c3)O[C@](C)(C(F)(F)F)[C@@H]2C)ccc(F)c1F (stereo in doubt) [Compound 1, rel-4-((2S,3R,4R,5S)-3-(3,4-difluoro-2-(2-methoxyethoxy)phenyl)-4,5-dimethyl-5-(trifluoromethyl)tetrahydrofuran-2-carboxamido) picolinamide] | 100 to 1000
C[C@]1(C(F)(F)F)C[C@@H](c2ccc(OC(F)(F)F)cc2Cl)[C@H](C(=O)Nc2ccnc(C(N)=O)c2)O1 (stereo in doubt) [Compound 151, rel-4-((2R,3S,5R)-3-(2-chloro-4-(trifluoromethoxy)phenyl)-5-methyl-5-(trifluoromethyl)tetrahydrofuran-2-carboxamido) picolinamide] | 10 to 100
C[C@H]1[C@@H](c2ccc(F)c(F)c2OCCO)[C@H](C(=O)Nc2ccnc(C(N)=O)c2)O[C@@]1(C)C(F)(F)F [Compound 5, 4-((2R,3S,4S,5R)-3-(3,4-difluoro-2-(2-hydroxyethoxy)phenyl)-4,5-dimethyl-5-(trifluoromethyl)tetrahydrofuran-2-carboxamido) picolinamide] | < 10
C[C@H]1[C@@H](c2ccc(F)c(F)c2OCc2cnco2)[C@H](C(=O)Nc2ccnc(C(N)=O)c2)O[C@@]1(C)C(F)(F)F [Compound 6] | < 10
C[C@H]1[C@@H](c2ccc(F)c(F)c2OC[C@H]2C[C@](O)(C(F)(F)F)C2)[C@H](C(=O)Nc2ccnc(C(N)=O)c2)O[C@@]1(C)C(F)(F)F [Compound 7, 4-((2R,3S,4S,5R)-3-(3,4-difluoro-2-(((1s,3R)-3-hydroxy-3-(trifluoromethyl)cyclobutyl)methoxy)phenyl)-4,5-dimethyl-5-(trifluoromethyl)tetrahydrofuran-2-carboxamido)picolinamide] | 10 to 100
COc1c([C@H]2[C@H](C(=O)Nc3ccnc(C(=O)N4CCN(C)CC4)c3)O[C@@](C)(C(F)(F)F)[C@H]2C)ccc(F)c1F [Compound 8, (2R,3S,4S,5R)-3-(3,4-difluoro-2-methoxy-phenyl)-4,5-dimethyl-N-[2-(4-methylpiperazine-1-carbonyl)-4-pyridyl]-5-(trifluoromethyl)tetrahydrofuran-2-carboxamide] | < 10
COc1c([C@H]2[C@H](C(=O)Nc3cc(C(=O)N4CCN(C)CC4)ncc3F)O[C@@](C)(C(F)(F)F)[C@H]2C)ccc(F)c1F [Compound 9, (2R,3S,4S,5R)-3-(3,4-difluoro-2-methoxyphenyl)-N-(5-fluoro-2-(4-methylpiperazine-1-carbonyl)pyridin-4-yl)-4,5-dimethyl-5-(trifluoromethyl)tetrahydrofuran-2-carboxamide] | < 10
COc1c([C@H]2[C@H](C(=O)Nc3cccc(C(=O)N4CCN(C)CC4)n3)O[C@@](C)(C(F)(F)F)[C@H]2C)ccc(F)c1F [Compound 10, (2R,3S,4S,5R)-3-(3,4-difluoro-2-methoxyphenyl)-4,5-dimethyl-N-(6-(4-methylpiperazine-1-carbonyl)pyridin-2-yl)-5-(trifluoromethyl)tetrahydrofuran-2-carboxamide] | 100 to 1000
COc1c([C@H]2[C@H](C(=O)Nc3ccnc(C(=O)N4CCN(C)CC4)n3)O[C@@](C)(C(F)(F)F)[C@H]2C)ccc(F)c1F [Compound 11, (2R,3S,4S,5R)-3-(3,4-difluoro-2-methoxyphenyl)-4,5-dimethyl-N-(2-(4-methylpiperazine-1-carbonyl)pyrimidin-4-yl)-5-(trifluoromethyl)tetrahydrofuran-2-carboxamide] | 10 to 100
COc1c([C@H]2[C@H](C(=O)Nc3cc(C(=O)N4CCN(C)CC4)ncc3C)O[C@@](C)(C(F)(F)F)[C@H]2C)ccc(F)c1F [Compound 12, (2R,3S,4S,5R)-3-(3,4-difluoro-2-methoxyphenyl)-4,5-dimethyl-N-(5-methyl-2-(4-methylpiperazine-1-carbonyl)pyridin-4-yl)-5-(trifluoromethyl)tetrahydrofuran-2-carboxamide] | 10 to 100
COc1c([C@H]2[C@H](C(=O)Nc3nccc(C(=O)N4CCN(C)CC4)n3)O[C@@](C)(C(F)(F)F)[C@H]2C)ccc(F)c1F [Compound 13, (2R,3S,4S,5R)-3-(3,4-difluoro-2-methoxyphenyl)-4,5-dimethyl-N-(4-(4-methylpiperazine-1-carbonyl)pyrimidin-2-yl)-5-(trifluoromethyl)tetrahydrofuran-2-carboxamide] | 100 to 1000
COc1c([C@H]2[C@H](C(=O)Nc3cc(C(=O)N4CCN(C)CC4)ccn3)O[C@@](C)(C(F)(F)F)[C@H]2C)ccc(F)c1F [Compound 14, (2R,3S,4S,5R)-3-(3,4-difluoro-2-methoxyphenyl)-4,5-dimethyl-N-(4-(4-methylpiperazine-1-carbonyl)pyridin-2-yl)-5-(trifluoromethyl)tetrahydrofuran-2-carboxamide] | 100 to 1000
COc1c([C@H]2[C@H](C(=O)Nc3cc(C(=O)N4CCNCC4)ncc3C)O[C@@](C)(C(F)(F)F)[C@H]2C)ccc(F)c1F [Compound 15, (2R,3S,4S,5R)-3-(3,4-difluoro-2-methoxy-phenyl)-4,5-dimethyl-N-[5-methyl-2-(piperazine-1-carbonyl)-4-pyridyl]-5-(trifluoromethyl)tetrahydrofuran-2-carboxamide] | < 10
